# Reference: patent US11453671B2, “Pyrazolopyrimidine inhibitors of JAK kinases and uses thereof” (Genentech, Inc., priority 2020, dated 2022)
# Key:
# [1] = system: JAK1 pathway: P-STAT6 in TF-1 human erythroleukemia cells + IL-13; assay: P-STAT6 TF-1+Interleukin-13 (IL-13) assay; format: cell-based; conditions: Homo sapiens, TF-1, TF-1 cells, IL-13 stimulation; read-out: Cellular JAK1 PSTAT6 TF-1 + IL13 IC50
# Procedure: (§1) TF-1 human erythroleukemia cells (ATCC®; Manassas, Va.; Catalog No. CRL-2003™) were grown in Roswell Park Memorial Institute (RPMI) medium supplemented with 10% heat-inactivated fetal bovine serum (FBS), 2 ng/mL granulocyte-macrophage colony-stimulating factor, 1×non-essential amino acids (NEAA), and 1 mM sodium pyruvate. The day before the assay, the cultures were transferred to Opti-MEM™, 1×NEAA, 1 mM sodium pyruvate, and 0.5% charcoal-stripped FBS (starve medium). Inhibitor stock solutions (5 mM in DMSO) were serially diluted 1:2 in DMSO to generate a 10-point concentration titration (at 500×test concentration), which was further diluted by a 50-fold dilution in Assay Medium (RPMI containing 1×NEAA and 1 mM sodium pyruvate) to generate a 10×concentration titration (in 2% DMSO). The cells (300,000 cells/well in 35 μL of Assay Medium) were seeded in 384-well Greiner plates. Diluted inhibitor at 10×concentration (5 μL) was added to the cells and the plates were incubated for 30 minutes at 37° C. in a humidified incubator. Cells were stimulated with the human recombinant cytokine at the respective EC90 concentrations, as previously determined for each individual lot. For the phosphorylated signal transducer and activator of transcription 6 (P-STAT6) TF-1+Interleukin-13 (IL-13) assay, 10 μL of 250 ng/mL IL-13 (R&D Systems; Minneapolis, Minn.) was added to the cells, which were then incubated for 10 minutes at 37° C. For the P-STAT5 TF-1+Erythropoietin (EPO) assay, 10 μL of 110 IU/mL EPO (Gibco Life Technologies, Catalog No. PHC2054) was added to the cells, which were then incubated for 30 min at 37° C. For both assays, the incubation was followed by addition to the cells of 5 μL of ice-cold 10× cell lysis buffer (Cell Signaling Technologies; Danvers, Mass.; Catalog No. 9803S) containing 1 mM phenylmethylsulfonyl fluoride (PMSF). Assay plates were frozen at −80° C. for a minimum of 1 horn. In the IL-13 assay, P-STAT6 was measured by coating goat anti-rabbit (GAR) plates (Meso Scale Discovery [MSD]; Rockville, Md.; Catalog No. MSD L21RA-1) with rabbit anti-human total STAT6 antibody (Cell Signaling Technologies; Catalog No. 9362S), incubating the cell lysates in the coated plates overnight at 4° C., and then detecting with mouse anti-P-STAT6 (Tyr641) Clone 16E12 antibody (MilliporeSigma; Burlington, Mass.; Catalog No. 05-590, custom labeled by MSD with SULFO-tag) using standard MSD plate processing, washing, and detection protocols. In the EPO assay, P-STAT5 was detected using the phospho-STAT5a,b Whole Cell Lysate Kit (MSD; Catalog No. K150IGD-1). The electrochemiluminescence (ECL) signal of wells was read on the MESO SECTOR S600 (MSD) reader.
# [2] = system: JAK1: IL-13-stimulated STAT6 phosphorylation in BEAS-2B cells; assay: P-STAT6 BEAS-2B+IL-13 Cell Assay; format: cell-based, human; conditions: Homo sapiens, BEAS-2B, IL-13 stimulation, read-out: Cellular JAK1 PSTAT6 BEAS2B + IL13 IC50
# Method in brief: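 BEAS-2B cells in BEGM preincubated 1 h at 37 °C with 10-point, 1:2 compound dilutions, then stimulated 15 min with IL-13 (250 ng/mL stock). Lysate pSTAT6 (Tyr641) captured on total-STAT6 antibody and read by MSD electrochemiluminescence; IC50 from four-parameter logistic fit.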
# [3] = system: JAK2 pathway: P-STAT5 in TF-1 human erythroleukemia cells + EPO; assay: P-STAT5 TF-1+Erythropoietin (EPO) assay; format: cell-based; conditions: Homo sapiens, TF-1, TF-1 cells, EPO stimulation; read-out: Cellular JAK2 PSTAT5 TF-l + EPO IC50
# Procedure: as §1
# [4] = molecular target: T1, recombinant human JAK1 kinase domain protein (Residues 854-1154) (Homo sapiens, UniProt P23458); assay: JAK1 biochemical assay (microfluidic mobility shift, peptide phosphorylation); conditions: 25 μM ATP, 1 nM total JAK1; read-out: Enzyme JAK1 Ki
# T1 construct: human JAK1 kinase domain protein (Residues 854-1154); purchased Proteros Biostructures GmbH (Martinsried, Germany); host or cells: insect cells
# T1 sequence (P23458 854-1154): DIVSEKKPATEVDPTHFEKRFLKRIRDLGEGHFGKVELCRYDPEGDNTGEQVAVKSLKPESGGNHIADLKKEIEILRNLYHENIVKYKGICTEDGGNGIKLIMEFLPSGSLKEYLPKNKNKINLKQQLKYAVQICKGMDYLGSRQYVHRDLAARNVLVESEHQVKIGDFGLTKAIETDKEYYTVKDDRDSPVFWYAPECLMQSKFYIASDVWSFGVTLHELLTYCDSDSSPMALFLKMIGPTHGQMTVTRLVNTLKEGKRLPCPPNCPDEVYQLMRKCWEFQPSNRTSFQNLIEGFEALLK
# Description: JAK1 and JAK2 Biochemical Assays
IC50 [1],IC50 [3],Ki [4],Compound,IC50 [2]
0.034 µM,0.028 µM,0.0004 µM,"Cn1cc(NC(=O)c2cnn3cccnc23)c(-c2cc(S(=O)(=O)C3COC3)ccc2OC(F)F)n1 [Example 13, N-[3-[2-(difluoromethoxy)-5-(oxetan-3-ylsulfonyl)phenyl]-1-methyl-pyrazol-4-yl]pyrazolo[1,5-a]pyrimidine-3-carboxamide]",0.033 µM
0.0046 µM,0.014 µM,0.00046 µM,"Cn1cc(NC(=O)c2cnn3cccnc23)c(-c2cc(S(=O)(=O)C3CC3)ccc2OC(F)F)n1 [Example 22, N-[3-[5-cyclopropylsulfonyl-2-(difluoromethoxy)phenyl]-1-methyl-pyrazol-4-yl]pyrazolo[1,5-a]pyrimidine-3-carboxamide]",0.023 µM
0.0031 µM,0.026 µM,0.00024 µM,"CS(=O)(=O)c1ccc(OC(F)F)c(-c2nn(CC#N)cc2NC(=O)c2cnn3cccnc23)c1 [Example 28, N-[1-(cyanomethyl)-3-[2-(difluoromethoxy)-5-methylsulfonyl-phenyl]pyrazol-4-yl]pyrazolo[1,5-a]pyrimidine-3-carboxamide]",0.0095 µM
0.0058 µM,0.014 µM,0.0003 µM,"Cn1cc(S(=O)(=O)c2ccc(OC(F)F)c(-c3nn(C)cc3NC(=O)c3cnn4cccnc34)c2)cn1 [Example 35, N-[3-[2-(difluoromethoxy)-5-(1-methylpyrazol-4-yl)sulfonyl-phenyl]-1-methyl-pyrazol-4-yl]pyrazolo[1,5-a]pyrimidine-3-carboxamide]",0.024 µM
0.0031 µM,0.0064 µM,0.00021 µM,"Cn1cc(NC(=O)c2cnn3cccnc23)c(-c2cc(S(=O)(=O)c3ccccc3)ccc2OC(F)F)n1 [Example 40, N-[3-[5-(benzenesulfonyl)-2-(difluoromethoxy)phenyl]-1-methyl-pyrazol-4-yl]pyrazolo[1,5-a]pyrimidine-3-carboxamide]",0.024 µM
0.015 µM,0.034 µM,0.00018 µM,"Cn1cc(NC(=O)c2cnn3cccnc23)c(-c2cc(S(=O)(=O)c3cn[nH]c3)ccc2OC(F)F)n1 [Example 41, N-[3-[2-(difluoromethoxy)-5-(1H-pyrazol-4-ylsulfonyl)phenyl]-1-methyl-pyrazol-4-yl]pyrazolo[1,5-a]pyrimidine-3-carboxamide]",0.037 µM
0.014 µM,0.015 µM,0.00052 µM,"Cn1cc(NC(=O)c2cnn3cccnc23)c(-c2cc(S(=O)(=O)c3ccn(C)c(=O)c3)ccc2OC(F)F)n1 [Example 44, N-[3-[2-(difluoromethoxy)-5-[(1-methyl-2-oxo-4-pyridyl)sulfonyl]phenyl]-1-methyl-pyrazol-4-yl]pyrazolo[1,5-a]pyrimidine-3-carboxamide]",0.029 µM
0.01 µM,0.038 µM,0.00071 µM,"N#CCn1cc(NC(=O)c2cnn3cccnc23)c(-c2cc(S(=O)(=O)C3CC3)ccc2OC(F)F)n1 [Example 45, N-[1-(cyanomethyl)-3-[5-cyclopropylsulfonyl-2-(difluoromethoxy)phenyl]pyrazol-4-yl]pyrazolo[1,5-a]pyrimidine-3-carboxamide]",0.035 µM
0.027 µM,0.061 µM,0.00026 µM,"Cn1cc(NC(=O)c2cnn3cccnc23)c(-c2cc3c(cc2OC(F)F)NCCS3(=O)=O)n1 [Example 46, N-[3-[6-(difluoromethoxy)-1,1-dioxo-3,4-dihydro-2H-1lambda6,4-benzothiazin-7-yl]-1-methyl-pyrazol-4-yl]pyrazolo[1,5-a]pyrimidine-3-carboxamide]",0.049 µM
0.02 µM,0.034 µM,0.0005 µM,"CN(C)CCn1cc(S(=O)(=O)c2ccc(OC(F)F)c(-c3nn(C)cc3NC(=O)c3cnn4cccnc34)c2)cn1 [Example 49, N-[3-[2-(difluoromethoxy)-5-[1-[2-(dimethylamino)ethyl]pyrazol-4-yl]sulfonyl-phenyl]-1-methyl-pyrazol-4-yl]pyrazolo[1,5-a]pyrimidine-3-carboxamide]",0.028 µM
0.013 µM,0.028 µM,0.00053 µM,"C[C@H](Cn1cc(S(=O)(=O)c2ccc(OC(F)F)c(-c3nn(C)cc3NC(=O)c3cnn4cccnc34)c2)cn1)N(C)C [Example 59, N-[3-[2-(difluoromethoxy)-5-[1-[(2R)-2-(dimethylamino)propyl]pyrazol-4-yl]sulfonyl-phenyl]-1-methyl-pyrazol-4-yl]pyrazolo[1,5-a]pyrimidine-3-carboxamide]",0.032 µM
